Reference: US20120264735A1 (priority 2009, published 2012)

Each compound was assayed against T1, c-Met kinase (recombinant c-Met) (Homo sapiens, UniProt P08581) (assay: In vitro kinase assay I (homogeneous time-resolved fluorescence tyrosine kinase assay)).
T1 construct: 0.27 nM recombinant c-Met
Format: biochemical
Outline: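 Biotinylated peptide (0.5 μM) phosphorylated by 0.2 nM recombinant c-Met with 50 μM MgATP, 60 min at room temperature, pH 7.4, 5% DMSO. EDTA stop; HTRF read with Eu-anti-phosphotyrosine antibody and streptavidin-APC. IC50 from 4-parameter logistic fit.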

T1 sequence (P08581 25-1390): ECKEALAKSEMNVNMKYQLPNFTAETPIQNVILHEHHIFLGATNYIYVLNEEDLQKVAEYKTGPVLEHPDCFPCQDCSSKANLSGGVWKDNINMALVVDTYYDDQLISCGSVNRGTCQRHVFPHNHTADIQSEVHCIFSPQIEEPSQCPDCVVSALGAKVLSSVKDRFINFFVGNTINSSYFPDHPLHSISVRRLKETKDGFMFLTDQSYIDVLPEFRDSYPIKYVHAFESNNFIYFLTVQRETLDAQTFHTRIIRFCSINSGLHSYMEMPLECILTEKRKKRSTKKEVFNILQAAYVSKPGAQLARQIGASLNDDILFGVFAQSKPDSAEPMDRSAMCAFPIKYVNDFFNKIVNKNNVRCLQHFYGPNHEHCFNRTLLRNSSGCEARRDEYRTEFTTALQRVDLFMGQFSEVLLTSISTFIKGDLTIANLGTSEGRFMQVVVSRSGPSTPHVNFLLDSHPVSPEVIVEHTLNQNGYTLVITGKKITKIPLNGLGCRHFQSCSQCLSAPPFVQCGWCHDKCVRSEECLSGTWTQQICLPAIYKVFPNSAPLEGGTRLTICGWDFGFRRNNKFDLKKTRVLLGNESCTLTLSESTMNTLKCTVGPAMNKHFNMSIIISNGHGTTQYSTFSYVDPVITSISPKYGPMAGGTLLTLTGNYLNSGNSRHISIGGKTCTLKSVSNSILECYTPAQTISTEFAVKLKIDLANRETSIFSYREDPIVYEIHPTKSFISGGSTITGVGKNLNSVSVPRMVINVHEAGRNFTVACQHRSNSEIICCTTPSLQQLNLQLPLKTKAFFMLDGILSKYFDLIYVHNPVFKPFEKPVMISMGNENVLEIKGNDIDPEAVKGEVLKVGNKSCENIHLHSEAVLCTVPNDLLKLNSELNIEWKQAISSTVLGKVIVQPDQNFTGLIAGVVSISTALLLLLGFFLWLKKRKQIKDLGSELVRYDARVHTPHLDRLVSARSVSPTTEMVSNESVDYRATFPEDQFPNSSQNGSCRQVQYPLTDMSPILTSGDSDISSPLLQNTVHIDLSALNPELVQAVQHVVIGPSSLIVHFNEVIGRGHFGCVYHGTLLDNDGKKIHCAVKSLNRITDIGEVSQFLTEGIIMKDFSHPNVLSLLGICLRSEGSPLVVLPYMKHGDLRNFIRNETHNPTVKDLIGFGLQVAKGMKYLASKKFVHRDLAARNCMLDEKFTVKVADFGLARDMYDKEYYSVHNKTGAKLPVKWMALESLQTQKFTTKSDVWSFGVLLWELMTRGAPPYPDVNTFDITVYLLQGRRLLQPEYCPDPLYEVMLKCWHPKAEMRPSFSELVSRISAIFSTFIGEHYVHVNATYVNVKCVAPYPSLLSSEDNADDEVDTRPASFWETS

IC50, < 100 nM:
Cn1cc(-n2ccc(=O)c(Cc3cccc(-c4ncc(OC5CCC6(CC5)OCCO6)cn4)c3)n2)cn1 [Example 123, 3-{3-[5-(1,4-dioxaspiro[4.5]dec-8-yloxy)pyrimidin-2-yl]benzyl}-1-(1-methyl-1H-pyrazol-4-yl)pyridazin-4(1H)-one]
O=c1ccn(-c2ccc(F)c(F)c2)nc1Cc1cccc(-c2ncc(OCc3ccccc3)cn2)c1 [Example 124, 3-{3-[5-(benzyloxy)pyrimidin-2-yl]benzyl}-1-(3,4-difluorophenyl)pyridazin-4(1H)-one]
O=c1ccn(-c2cc(F)cc(F)c2)nc1Cc1cccc(-c2ncc(OCc3ccccc3)cn2)c1 [Example 125, 3-{3-[5-(benzyloxy)pyrimidin-2-yl]benzyl}-1-(3,5-difluorophenyl)pyridazin-4(1H)-one]
COc1cnc(-c2cccc(Cc3nn(-c4cc(Cl)cc(C#N)c4)ccc3=O)c2)nc1 [Example 126, 3-chloro-5-{3-[3-(5-methoxypyrimidin-2-yl)benzyl]-4-oxopyridazin-1(4H)-yl}benzonitrile]
COCCOC(=O)Nc1cccc(Cc2nn(-c3cc(Cl)cc(C#N)c3)ccc2=O)c1 [Example 127, 2-methoxyethyl (3-{[1-(3-chloro-5-cyanophenyl)-4-oxo-1,4-dihydropyridazin-3-yl]methyl}phenyl)carbamate]
COc1cnc(-c2cccc(Cc3nn(-c4cc(F)cc(C#N)c4)ccc3=O)c2)nc1 [Example 128, 3-fluoro-5-{3-[3-(5-methoxypyrimidin-2-yl)benzyl]-4-oxopyridazin-1(4H)-yl}benzonitrile]
COCCOC(=O)Nc1cccc(Cc2nn(-c3cncc(C#N)c3)ccc2=O)c1 [Example 129, 2-methoxyethyl (3-{[1-(5-cyanopyridin-3-yl)-4-oxo-1,4-dihydropyridazin-3-yl]methyl}phenyl)carbamate]
COCCOc1cnc(-c2cccc(Cc3nn(-c4cncc(C#N)c4)ccc3=O)c2)nc1 [Example 132, 5-[3-{3-[5-(2-methoxyethoxy)pyrimidin-2-yl]benzyl}-4-oxopyridazin-1(4H)-yl]pyridine-3-carbonitrile]
CCOc1cnc(-c2cccc(Cc3nn(-c4cc(F)cc(C#N)c4)ccc3=O)c2)nc1 [Example 133, 3-{3-[3-(5-ethoxypyrimidin-2-yl)benzyl]-4-oxopyridazin-1(4H)-yl}-5-fluorobenzonitrile]
COCCOc1cnc(-c2cccc(Cc3nn(-c4cc(F)cc(C#N)c4)ccc3=O)c2)nc1 [Example 134, 3-fluoro-5-[3-{3-[5-(2-methoxyethoxy)pyrimidin-2-yl]benzyl}-4-oxopyridazin-1(4H)-yl]benzonitrile]
CCOC(=O)Nc1cccc(Cc2nn(-c3cccc(C#N)c3)ccc2=O)c1 [Example 135, ethyl (3-{[1-(3-cyanophenyl)-4-oxo-1,4-dihydropyridazin-3-yl]methyl}phenyl)carbamate]
CCOc1cnc(-c2cccc(Cc3nn(-c4cncc(C#N)c4)ccc3=O)c2)nc1 [Example 136, 5-{3-[3-(5-ethoxypyrimidin-2-yl)benzyl]-4-oxopyridazin-1(4H)-yl}pyridine-3-carbonitrile]
CCOc1cnc(-c2cccc(Cc3nn(-c4ccc(C#N)cc4)ccc3=O)c2)nc1 [Example 137, 4-{3-[3-(5-ethoxypyrimidin-2-yl)benzyl]-4-oxopyridazin-1(4H)-yl}benzonitrile]
COCCOc1cnc(-c2cccc(Cc3nn(-c4ccc(C#N)cc4)ccc3=O)c2)nc1 [Example 138, 4-[3-{3-[5-(2-methoxyethoxy)pyrimidin-2-yl]benzyl}-4-oxopyridazin-1(4H)-yl]benzonitrile]
CCOc1cnc(-c2cccc(Cc3nn(-c4cc(Cl)cc(C#N)c4)ccc3=O)c2)nc1 [Example 140, 3-chloro-5-{3-[3-(5-ethoxypyrimidin-2-yl)benzyl]-4-oxopyridazin-1(4H)-yl}benzonitrile]
